Experimental data: paper PMC11200018 (2024)

How the values were obtained:
[1] = test system: TelQD31 (DNA, G4) GGGCGCGAAGCATTCGCGGGGTTAGGGTGGG; assay: NMR titration; conditions: 120 mM K+; 120 mM K+ buffer, pH 7.0; binding at quadruplex-duplex junction
[2] = test system: TelQD (DNA, G4) GGGCGCGAAGCATTCGCGGGGTTAGGGTTAGGG; assay: NMR solution structure; conditions: 120 mM K+; 20 mM potassium phosphate, 100 mM KCl, pH 7.0, 25 °C; refolds to (3+1) hybrid-2
[3] = test system: 32BrTelQD (DNA, G4, 8-bromo-2'-deoxyguanosine at 32) GGGCGCGAAGCATTCGCGGGGTTAGGGTTAGGG; assay: NMR titration and induced CD; conditions: 120 mM K+; 120 mM K+ buffer, pH 7.0; incomplete refolding, polymorphic complex

Measured: binding

C[n+]1cc(NC(=O)c2ccc3ccc4ccc(C(=O)Nc5cc6ccccc6[n+](C)c5)nc4c3n2)cc2ccccc21
yes: [1] | [2] | [3]
